# Patent publication US20180343865A1, “HERBICIDAL COMPOSITIONS COMPRISING ISOXAZOLO[5,4-B]PYRIDINES” (BASF SE, priority 2015, published 2018)
# Several values for one entry are separate records, joined by “and”; a condition that tells them apart may be missing. Equal values may be shown once. Read-outs that look alike come from different tables or passages of the source.
# Experiments:
# Type in all cases: in vivo
# Abutilon theoprasti = assay: Greenhouse postemergence herbicidal activity on ABUTH, 20 DAT
# Experimental: (§1) For the post emergence treatment, the plants were first grown to the 2 leaf station (GS 12) and applied at GS 12-19 depending on the species. The herbicidal compositions were suspended or emulsified in water as distribution medium and sprayed using finely distributing nozzles.
# (§2) The plants have been cultivated due to their individual requirements at 10 to 25° C. and. 20 to 35° C. The plants were irrigated due to their necessity.
# (§3) The respective stated components A), were formulated as a 5% by weight strength emulsion concentrate containing wettol EM 31 20% and Cyclohexanone 80%. The respective stated components B), were formulated as either emulsifiable concentrates (EC), soluble liquids (SL), suspension concentrates (SC) or soluble granules (SG) as indicated in the table below. Component A, component B and the solvent system are introduced into the spray liquor used for applying the active compound. In the examples, the solvent used was water containing 1% Dash (Agnique ME 181 37.5%, Lutensit A-EP 22.5%, and Oleic Acid 5%) and 2% ammonium suflate.
# (§4) In the following experiments, the herbicidal activity for the individual herbicide compounds (solo and mixture applications), the herbicidal succession was assessed 20 days after treatment (DAT). The evaluation for the damage on undesired weeds caused by the chemical compositions was carried out using a scale from 0 to 100%, compared to the untreated control plants. Here, 0 means no damage and 100 means complete destruction of the plants. The plants used in the greenhouse experiments belonged to the following species:
# (§5) The value E, which corresponds to the effect (in %) that is to be expected if the activity of the individual compounds is additive, was calculated using the method of S. R. Colby (1967) “Calculating synergistic and antagonistic responses of herbicide combinations”, Weeds 15, p. 22 ff. Colby calculation for 2 way mixtures:
# (§6) where: • X=effect in percent using herbicide A at an application rate a; • Y=effect in percent using herbicide B at an application rate b; • E=expected effect (in %) of A+B at application rates a+b
# (§7) If the value observed in this manner is higher than the value E calculated according to Colby, a synergistic effect is present.
# Ambrosia elatior = assay: Greenhouse postemergence herbicidal activity on AMBEL, 20 DAT; conditions: AMBEL, postemergence, 20 DAT
# Experimental: as §1, §2, §3, §4, §5, §6, §7
# Polygonum convolvulus = assay: Greenhouse postemergence herbicidal activity on POLCO, 20 DAT; conditions: Fallopia convolvulus, post-emergence, POLCO, postemergence; for inhibition at 62.5 g/ha: 62.5 gai/ha
# Experimental: as §1, §2, §3, §4, §5, §6, §7
# Chenopodium album = assay: Greenhouse postemergence herbicidal activity on CHEAL, 20 DAT; conditions: for inhibition at 15.6 g/ha: 15.6 gai/ha; for inhibition at 125 g/ha: 125 gai/ha; for inhibition at 250 g/ha: 250 gai/ha
# Experimental: as §1, §2, §3, §4, §5, §6, §7
# Conyza canadiensis = assay: Greenhouse postemergence herbicidal activity on ERICA, 20 DAT; conditions: Conyza, post-emergence, ERICA, postemergence; for inhibition at 31.25 g/ha: 31.25 gai/ha
# Experimental: as §1, §2, §3, §4, §5, §6, §7
# Matricaria chamomilla = assay: Greenhouse postemergence herbicidal activity on MATCH, 20 DAT; conditions: Matricaria chamomilla, post-emergence, 62.5 gai/ha
# Experimental: as §1, §2, §3, §4, §5, §6, §7
# Sorghum bicolor = assay: Greenhouse postemergence herbicidal activity on SORVU, 20 DAT; conditions: Sorghum bicolor, post-emergence, 480 h, SORVU, postemergence, 20 DAT, read-out: % activity, solo (I.A)
# Experimental: as §1, §2, §3, §4, §5, §6, §7
# Sinapis arvensis = assay: Greenhouse postemergence herbicidal activity on SINAR, 20 DAT; conditions: Mutarda arvensis, post-emergence, 480 h, read-out: % activity, solo (I.A)
# Experimental: as §1, §2, §3, §4, §5, §6, §7
# Kochia scoparia = assay: Greenhouse postemergence herbicidal activity on KCHSC, 20 DAT; conditions: for inhibition at 31.25 g/ha: 31.25 gai/ha; for inhibition at 62.5 g/ha: 62.5 gai/ha
# Experimental: as §1, §2, §3, §4, §5, §6, §7
# Amaranthus palmeri = assay: Greenhouse postemergence herbicidal activity on AMAPA, 20 DAT
# Experimental: as §1, §2, §3, §4, §5, §6, §7
# APESV = assay: Greenhouse postemergence herbicidal activity on APESV, 20 DAT; conditions: post-emergence, Table 8, read-out: % activity, solo application (I.A)
# AVEFA = assay: Greenhouse postemergence herbicidal activity on AVEFA, 20 DAT; conditions: Avena fatua, post-emergence, Table 8, read-out: % activity, solo application (I.A)
# BROST = assay: Greenhouse postemergence herbicidal activity on BROST, 20 DAT; conditions: post-emergence, 31.25 gai/ha, Table 8, read-out: % activity, solo application (I.A)
# CONAR = assay: Greenhouse postemergence herbicidal activity on CONAR, 20 DAT; conditions: post-emergence, Table 8, read-out: % activity, solo application (I.A)
# DIGSA = assay: Greenhouse postemergence herbicidal activity on DIGSA, 20 DAT; conditions: Digitaria sanguinalis, post-emergence, Table 8, read-out: % activity, solo application (I.A)
# [1] = 480 h, 15.6 gai/ha, 20 DAT, read-out: % activity, solo (I.A)
# [2] = Table 8, read-out: % activity, solo application (I.A)
# [3] = Chenopodium album, post-emergence, Table 6, read-out: % activity, solo application (I.A)
# [4] = Chenopodium album, post-emergence, 480 h, 20 DAT, read-out: % activity, solo (I.A)
# [5] = 480 h, 20 DAT, read-out: % activity, solo (I.A)
# [6] = Bassia scoparia, post-emergence, Table 6, read-out: % activity, solo application (I.A)
# [7] = Bassia scoparia, post-emergence, 480 h, 20 DAT, read-out: % activity, solo (I.A)
smiles,measurement,setting,value
CC(C)c1noc2nc(C3CC3)cc(C(=O)O)c12 [(I.A)],"% activity, solo (I.A)","Abutilon theoprasti; 62.5 gai/ha, 20 DAT",98%
same,inhibition at 7.8 g/ha,"Abutilon theoprasti; Abutilon, post-emergence, 7.8 gai/ha, Table 8, read-out: % activity, solo application (I.A)",0%
same,inhibition at 15.6 g/ha,"Abutilon theoprasti; Abutilon, post-emergence, 15.6 gai/ha, Table 8, read-out: % activity, solo application (I.A)",0%
same,inhibition at 31.25 g/ha,"Abutilon theoprasti; Abutilon, post-emergence, 31.25 gai/ha, Table 8, read-out: % activity, solo application (I.A)",20%
same,inhibition at 62.5 g/ha,"Abutilon theoprasti; Abutilon, post-emergence, 62.5 gai/ha, Table 6, read-out: % activity, solo application (I.A)",70%
same,inhibition at 62.5 g/ha,"Abutilon theoprasti; Abutilon, post-emergence, 62.5 gai/ha, Table 8, read-out: % activity, solo application (I.A)",30%
same,inhibition at 125 g/ha,"Abutilon theoprasti; Abutilon, post-emergence, 480 h, 125 gai/ha, 20 DAT, read-out: % activity, solo (I.A)",73%
same,inhibition at 250 g/ha,"Abutilon theoprasti; Abutilon, post-emergence, 480 h, 250 gai/ha, 20 DAT, read-out: % activity, solo (I.A)",92%
same,"% activity, solo (I.A)",Ambrosia elatior; 31.25 gai/ha,50% and 25%
same,inhibition at 15.6 g/ha,"Ambrosia elatior; Ambrosia artemisiifolia, post-emergence, 480 h, 15.6 gai/ha, read-out: % activity, solo (I.A)",0%
same,inhibition at 62.5 g/ha,"Ambrosia elatior; Ambrosia artemisiifolia, post-emergence, 480 h, 62.5 gai/ha, read-out: % activity, solo (I.A)",70%
same,inhibition at 15.6 g/ha,Polygonum convolvulus; [1],30%
same,inhibition at 31.25 g/ha,"Polygonum convolvulus; 31.25 gai/ha, Table 6, read-out: % activity, solo application (I.A)",73%
same,inhibition at 62.5 g/ha,"Polygonum convolvulus; Table 6, read-out: % activity, solo application (I.A)",95%
same,inhibition at 62.5 g/ha,Polygonum convolvulus; [2],35%
same,inhibition at 125 g/ha,"Polygonum convolvulus; 125 gai/ha, Table 6, read-out: % activity, solo application (I.A)",99%
same,"% activity, solo (I.A)","Chenopodium album; 62.5 gai/ha, 20 DAT",65% and 93%
same,inhibition at 7.8 g/ha,"Chenopodium album; Chenopodium album, post-emergence, 7.8 gai/ha, Table 8, read-out: % activity, solo application (I.A)",50%
same,inhibition at 15.6 g/ha,"Chenopodium album; Chenopodium album, post-emergence, Table 8, read-out: % activity, solo application (I.A)",85%
same,inhibition at 31.25 g/ha,"Chenopodium album; Chenopodium album, post-emergence, 31.25 gai/ha, Table 6, read-out: % activity, solo application (I.A)",58%
same,inhibition at 62.5 g/ha,"Chenopodium album; Chenopodium album, post-emergence, 62.5 gai/ha, Table 6, read-out: % activity, solo application (I.A)",78%
same,inhibition at 125 g/ha,Chenopodium album; [3],83%
same,inhibition at 250 g/ha,Chenopodium album; [3],98%
same,inhibition at 15.6 g/ha,Chenopodium album; [4],10%
same,inhibition at 125 g/ha,Chenopodium album; [4],83%
same,inhibition at 250 g/ha,Chenopodium album; [4],98%
same,inhibition at 15.6 g/ha,Conyza canadiensis; [1],40%
same,inhibition at 31.25 g/ha,Conyza canadiensis; [5],40%
same,inhibition at 62.5 g/ha,"Conyza canadiensis; 480 h, 62.5 gai/ha, 20 DAT, read-out: % activity, solo (I.A)",90%
same,inhibition at 31.25 g/ha,Conyza canadiensis; [2],35%
same,inhibition at 62.5 g/ha,Matricaria chamomilla; [2],70%
same,inhibition at 62.5 g/ha,Matricaria chamomilla; [5],65%
same,inhibition at 15.6 g/ha,Sorghum bicolor; 15.6 gai/ha,30%
same,inhibition at 31.25 g/ha,Sorghum bicolor; 31.25 gai/ha,30%
same,inhibition at 62.5 g/ha,Sorghum bicolor; 62.5 gai/ha,30%
same,inhibition at 125 g/ha,Sorghum bicolor; 125 gai/ha,40%
same,inhibition at 15.6 g/ha,Sinapis arvensis; 15.6 gai/ha,95%
same,inhibition at 31.25 g/ha,Sinapis arvensis; 31.25 gai/ha,78%
same,inhibition at 62.5 g/ha,Sinapis arvensis; 62.5 gai/ha,83%
same,inhibition at 125 g/ha,Sinapis arvensis; 125 gai/ha,90%
same,"% activity, solo (I.A)","Kochia scoparia; 125 gai/ha, 20 DAT",95%
same,inhibition at 31.25 g/ha,Kochia scoparia; [6],30%
same,inhibition at 62.5 g/ha,Kochia scoparia; [6],63%
same,inhibition at 31.25 g/ha,Kochia scoparia; [7],35%
same,inhibition at 62.5 g/ha,Kochia scoparia; [7],68%
same,inhibition at 125 g/ha,"Kochia scoparia; Bassia scoparia, post-emergence, 480 h, 125 gai/ha, 20 DAT, read-out: % activity, solo (I.A)",90%
same,"% activity, solo (I.A)",Amaranthus palmeri; 62.5 gai/ha,89%
same,inhibition at 15.6 g/ha,"Amaranthus palmeri; Amaranthus palmeri, post-emergence, 480 h, 15.6 gai/ha, read-out: % activity, solo (I.A)",5%
same,inhibition at 31.25 g/ha,"Amaranthus palmeri; Amaranthus palmeri, post-emergence, 480 h, 31.25 gai/ha, read-out: % activity, solo (I.A)",80%
same,inhibition at 62.5 g/ha,"Amaranthus palmeri; Amaranthus palmeri, post-emergence, 480 h, 62.5 gai/ha, read-out: % activity, solo (I.A)",80%
same,inhibition at 15.6 g/ha,APESV; 15.6 gai/ha,0%
same,inhibition at 31.25 g/ha,APESV; 31.25 gai/ha,0%
same,inhibition at 62.5 g/ha,APESV; 62.5 gai/ha,0%
same,inhibition at 15.6 g/ha,AVEFA; 15.6 gai/ha,0%
same,inhibition at 62.5 g/ha,AVEFA; 62.5 gai/ha,20%
same,inhibition at 31.25 g/ha,BROST,0%
same,inhibition at 7.8 g/ha,CONAR; 7.8 gai/ha,0%
same,inhibition at 15.6 g/ha,CONAR; 15.6 gai/ha,0%
same,inhibition at 31.25 g/ha,CONAR; 31.25 gai/ha,0%
same,inhibition at 62.5 g/ha,CONAR; 62.5 gai/ha,35%
same,inhibition at 31.25 g/ha,DIGSA; 31.25 gai/ha,0%
same,inhibition at 62.5 g/ha,DIGSA; 62.5 gai/ha,0%
